# Assay results taken from patent US20140045890A1, “NOVEL COMPOUNDS” (SYNGENTA PARTICIPATIONS AG, priority 2011, published 2014).
# “And” between values parts separate entries of the source, which are not always exact repeats. Identical values can stand only once.
# Columns and labels:
# Plasmopara viticola = Plasmopara viticola / grape / leaf disc preventative; type: in vivo; details: foliar, grape vine leaf disks, inoculated 1 day after application, assessed 6-8 days after application, read-out: inhibit fungal infestation (percent disease control compared to untreated)
# Pythium ultimum = Pythium ultimum / liquid culture (seedling damping off); type: cell-based; details: Globisporangium ultimum, liquid culture in PDB, 24° C., 2-3 days after application, read-out: inhibit fungal infestation (inhibition of growth determined photometrically)
# [1] = system: Phaeosphaeria nodorum (Septoria nodorum); assay: Phaeosphaeria nodorum (Septoria nodorum) / wheat / leaf disc preventative (glume blotch); type: in vivo; details: Parastagonospora nodorum, foliar, wheat leaf segments cv. Kanzler, inoculated 2 days after application, assessed 5-7 days after application, read-out: inhibit fungal infestation (percent disease control compared to untreated)
# [2] = system: Blumeria qraminis f. sp. tritici (Erysiphe qraminis f. sp. tritici); assay: Blumeria graminis f. sp. tritici / wheat / leaf disc preventative (powdery mildew on wheat); type: in vivo; details: foliar, wheat leaf segments cv. Kanzler, inoculated 1 day after application, assessed 6-8 days after application, read-out: inhibit fungal infestation (percent disease control compared to untreated)
# Phytophthora infestans = assay: whole plant or invertebrate; type: in vivo; details: in Solanum lycopersicum, foliar, read-out: inhibit fungal infestation (percent disease control compared to untreated)
Structure (SMILES),inhibition at 200 ppm (Plasmopara viticola),inhibition at 200 ppm (Pythium ultimum),inhibition at 200 ppm [1],inhibition at 200 ppm [2],melting point,inhibition at 200 ppm (Phytophthora infestans)
C#Cc1cnc2ccc(OC(SC)C(=O)NC(C)(C)c3nocc3C)cc2c1 (centres unmarked) [Compound 78],≥ 80%,≥ 80%,≥ 80%,≥ 80%,–,–
CSC(Oc1ccc2ncc(I)cc2c1)C(=O)NCc1ccccn1 (centres unmarked) [Compound 6],–,≥ 80%,–,≥ 80%,109 °C,–
C#Cc1cnc2ccc(OC(SC)C(=O)NC(C)(C)c3nocc3Cl)cc2c1 (centres unmarked) [Compound 51],≥ 80%,≥ 80%,≥ 80%,≥ 80%,–,≥ 80%
CSC(Oc1ccc2ncc(I)cc2c1)C(=O)NCc1ccno1 (centres unmarked) [Compound 2],–,≥ 80%,–,≥ 80%,153 °C,–
C#Cc1cnc2ccc(OC(SC)C(=O)NC(C)(C)c3ccc(Cl)nc3)cc2c1 (centres unmarked) [Compound 27],–,≥ 80%,–,–,114 °C,–
C#Cc1cnc2c(Cl)cc(OC(SC)C(=O)NCc3nccs3)cc2c1 (centres unmarked) [Compound 117],–,≥ 80%,≥ 80%,≥ 80%,–,–
C=Cc1cnc2c(Cl)cc(OC(CC)C(=O)NC(C)(C)c3ccon3)cc2c1 (centres unmarked) [Compound 136],–,≥ 80%,–,≥ 80%,104 °C,–
C#Cc1cnc2ccc(OC(SC)C(=O)NC(C)(C)c3ccccn3)cc2c1 (centres unmarked) [Compound 33],≥ 80%,≥ 80%,≥ 80%,≥ 80%,–,≥ 80%
CSC(Oc1ccc2ncc(Br)cc2c1)C(=O)NCc1ccno1 (centres unmarked) [Compound 3],–,≥ 80%,–,≥ 80%,140 °C,–
C=Cc1cnc2c(Cl)cc(OC(OC)C(=O)NC(C)(C)c3ccccn3)cc2c1 (centres unmarked) [Compound 134],≥ 80%,≥ 80%,–,≥ 80%,93 °C,–
C=Cc1cnc2c(F)cc(OC(OC)C(=O)NC(C)(C)c3ccon3)cc2c1 (centres unmarked) [Compound 138],–,–,–,≥ 80%,118 °C,–
C#Cc1cnc2ccc(OC(SC)C(=O)NCc3ccccn3)cc2c1 (centres unmarked) [Compound 25],–,≥ 80%,–,≥ 80%,133 °C,≥ 80%
C#Cc1cnc2ccc(OC(SC)C(=O)NCc3nc(C)c(C)s3)cc2c1 (centres unmarked) [Compound 31],–,≥ 80%,–,≥ 80%,126 °C,≥ 80%
C#Cc1cnc2ccc(OC(SC)C(=O)NC(C)(C)c3nc(C)cs3)cc2c1 (centres unmarked) [Compound 28],≥ 80%,≥ 80%,–,≥ 80%,97 to 99 °C and 97 °C,≥ 80%
C#Cc1cnc2c(C)cc(OC(SC)C(=O)NC(CC)c3ccccn3)cc2c1 (centres unmarked) [Compound 60],–,≥ 80%,≥ 80%,≥ 80%,–,–
C#Cc1cnc2c(Cl)cc(OC(SC)C(=O)NC(C)(C)c3cc(CC)on3)cc2c1 (centres unmarked) [Compound 22],≥ 80%,≥ 80%,–,≥ 80%,157 °C,≥ 80%
C#Cc1cnc2c(C)cc(OC(SC)C(=O)NCc3nccs3)cc2c1 (centres unmarked) [Compound 116],–,≥ 80%,≥ 80%,–,–,–
COC(Oc1cc(Cl)c2ncc(Br)cc2c1)C(=O)NC(C)(C)c1nccs1 (centres unmarked) [Compound 140],–,–,–,≥ 80%,111 °C,–

Structure (SMILES),inhibition at 200 ppm (Plasmopara viticola),inhibition at 200 ppm (Pythium ultimum),inhibition at 200 ppm [1],inhibition at 200 ppm [2],melting point,inhibition at 200 ppm (Phytophthora infestans)
C#Cc1cnc2cc(F)c(OC(SC)C(=O)NC(C)(C)c3cccc(C)n3)cc2c1 (centres unmarked) [Compound 111],–,≥ 80%,≥ 80%,≥ 80%,–,–
C#Cc1cnc2c(C)cc(OC(SC)C(=O)NC(C)(C)c3cc(C)ccn3)cc2c1 (centres unmarked) [Compound 17],≥ 80%,≥ 80%,–,≥ 80%,82 °C,–
CSC(Oc1ccc2ncc(Br)cc2c1)C(=O)NCc1ccccn1 (centres unmarked) [Compound 5],–,≥ 80%,–,–,104 °C,–
C#Cc1cnc2ccc(OC(SC)C(=O)NCc3ccno3)cc2c1 (centres unmarked) [Compound 4],–,≥ 80%,–,≥ 80%,115 °C,≥ 80%
C#Cc1cnc2ccc(OC(SC)C(=O)NCc3nc(C)cs3)cc2c1 (centres unmarked) [Compound 30],≥ 80%,≥ 80%,–,≥ 80%,115 °C,≥ 80%
C=Cc1cnc2c(F)cc(OC(CC)C(=O)NC(C)(C)c3nccs3)cc2c1 (centres unmarked) [Compound 137],≥ 80%,≥ 80%,–,≥ 80%,102 °C,≥ 80%
C#Cc1cnc2c(C)cc(OC(SC)C(=O)NC(C)(C)c3nocc3C)cc2c1 (centres unmarked) [Compound 75],≥ 80%,≥ 80%,≥ 80%,–,–,–
C#Cc1cnc2ccc(OC(SC)C(=O)NC(C)(C)c3ncc(Cl)s3)cc2c1 (centres unmarked) [Compound 19],≥ 80%,≥ 80%,–,≥ 80%,125 °C,–
CSC(Oc1cc(Cl)c2ncc(Br)cc2c1)C(=O)NCc1ccno1 (centres unmarked) [Compound 1],–,–,–,≥ 80%,143 °C,–
C#Cc1cnc2c(Cl)cc(OC(SC)C(=O)NC(C)(C)c3cccc(C)n3)cc2c1 (centres unmarked) [Compound 113],–,≥ 80%,≥ 80%,≥ 80%,–,–
C#Cc1cnc2ccc(OC(SC)C(=O)NCc3nccs3)cc2c1 (centres unmarked) [Compound 29],≥ 80%,≥ 80%,–,≥ 80%,178 °C,–
C=Cc1cnc2c(F)cc(OC(CC)C(=O)NC(C)(C)c3cc(CC)on3)cc2c1 (centres unmarked) [Compound 139],≥ 80%,≥ 80%,–,–,114 °C,≥ 80%
C#Cc1cnc2c(F)cc(OC(SC)C(=O)NC(C)(C)c3cc(CC)on3)cc2c1 (centres unmarked) [Compound 21],≥ 80%,≥ 80%,–,≥ 80%,133 °C,≥ 80%
C#Cc1cnc2c(C)cc(OC(SC)C(=O)NC(C)(C)c3ccc(Cl)nc3)cc2c1 (centres unmarked) [Compound 26],≥ 80%,≥ 80%,–,≥ 80%,120 °C,–
C#Cc1cnc2c(Cl)cc(OC(SC)C(=O)NC(C)(C)c3cc(C)on3)cc2c1 (centres unmarked) [Compound 68],≥ 80%,≥ 80%,≥ 80%,≥ 80%,–,–
COC(Oc1cc(Cl)c2ncc(Br)cc2c1)C(=O)NC(C)(C)c1ccccn1 (centres unmarked) [Compound 14],–,–,–,–,95 °C,–
CCc1cc(C(C)(C)NC(=O)C(Oc2ccc3ncc(I)cc3c2)SC)no1 (centres unmarked) [Compound 23],≥ 80%,≥ 80%,–,≥ 80%,125 °C,≥ 80%
C#Cc1cnc2c(C)cc(OC(SC)C(=O)NC(C)(C)c3cccc(C)n3)cc2c1 (centres unmarked) [Compound 16],≥ 80%,≥ 80%,–,≥ 80%,123 °C,–
